# Experimental data: patent EP2767275A1, “Nortriptyline, haloperidol or prochlorperazine edisylate for use in the treatment of tuberculosis as well as two screening methods” (priority 2013, dated 2014)
# Read-outs that look alike come from different tables or passages of the source.
# Columns and labels:
# M. bovis BCG-GFP [1] = format: cell-based; settings: for pattern-specific score (PSS): 10µM, 48 hr
# [2] = test system: HeLa cells stably expressing mRFP-GFP-LC3; format: cell-based, human; settings: for mRFP to GFP co-localisation: 2 hr, N and PE 10µM, Chloroquine 25 µM, BafilomycinA1 100nM; for co-localisation of mRFP and GFP over time: different periods of time
# Experimental: Second, an established assay was used for measuring autophagic flux based on a tandem mRFP-GFP-LC3 construct (Kimura et al., 2007). Since GFP is quenched in the acidic environment of autophagolysosomes whereas mRFP remains stable, agents blocking autophagy flux display higher colocalization of mRFP and GFP compared to those inducing autophagy. HeLa cells stably expressing mRFP-GFP-LC3 (Settembre et al., 2011) were treated with the compounds and the co-localization between mRFP and GFP was quantified. […] Similar results were obtained for the co-localisation of LC3-GFP with LBPA in HeLa-LC3-GFP cells (Figure 12D).
# The increased acidification by PE is in apparent contradiction with the inhibition of autophagic flux. To solve this discrepancy, HeLa cells stably expressing mRFP-GFP- -LC3 were treated with the compounds for different periods of time.
# M. bovis BCG-GFP [3] = format: cell-based
# HeLa cells = experiment: High content autophagy assay (LC3 immunostaining); format: cell-based, human; settings: 10µM (Rapamycin 5.5 µM), 4 hr
# Experimental: HeLa cells were treated with the compounds at a final concentration of 10µM, incubated for 4 hr, fixed with 3.7% PFA and immunostained with anti-LC3 antibody (clone PM036, MBL labs). Cells were counterstained by DAPI and Cell Mask Blue, imaged and analyzed as described above.
# Autophagy is a key process regulated by mTOR (Laplante and Sabatini, 2012) and a known mediator of intracellular mycobacterial survival (Gutierrez et al., 2004; Kumar et al., 2010). The integration approach predicted that compounds from E1, but not E2, modulate autophagy. To test it, HeLa cells were treated with the compounds, immunostained for the autophagosome marker LC3 and multiple parameters reporting diverse facets of autophagosomes were extracted (Table 3). […] Of the three compounds validated in intracellular mycobacterial killing, Nortriptyline and PE belong to sub-cluster E1 whereas Haloperidol belongs to E2.
# HeLa BAC GFP-Rab5c = experiment: Cell-based LDL trafficking assay; design: species or system human
# [4] = test system: A431 cells stably expressing GFP-Rab5; experiment: Live cell imaging of endosome motility; format: cell-based; settings: 10µM, 2 hr
# M. bovis BCG-GFP [5] = format: cell-based; settings: 10µM, 4 days plus 24hr with alamar blue
# LC3 = settings: for LC3-II band: 10 µM; for additive effects of BafilomycinA1 on LC3-II band: 10 µM with BafilomycinA1 100nM
# HeLa BAC LC3-GFP = format: cell-based, human
# M. bovis BCG-GFP [6] = format: cell-based; remark: listed apart in the source
compound,measurement,setting,value
"Cn1cnc(N)c2ncnc1-2 [3-MA, 3-Methyl Adenine]",effect of 3-MA on action of Nortriptyline on mycobacterial survival,M. bovis BCG-GFP [1],reverted the effect of Nortriptyline on mycobacterial survival
CC1(C)CC2C1CCC1(C)OC2(C)CCC1O (centres unmarked) [3;7-EPOXYCARYOPHYLLAN-6-OL],pattern-specific score (PSS),M. bovis BCG-GFP [1],0.7194
COc1cc2c(cc1OC)C1(O)C(=O)c3ccc(O)c(C(=O)O)c3OC1CO2 (centres unmarked) [12A-HYDROXY-9-DEMETHYLMUNDUSERONE-8-CARBOXYLIC ACID],pattern-specific score (PSS),M. bovis BCG-GFP [1],0.8387
CO/C1=C\C(C)=C\[C@@H](C)[C@@H](O)[C@@H](C)C/C(C)=C/C=C/[C@H](OC)[C@@H]([C@@H](C)[C@@H](O)[C@H](C)[C@@]2(O)C[C@@H](O)[C@H](C)[C@@H](C(C)C)O2)OC1=O [BafilomycinA1],mRFP to GFP co-localisation,[2],higher co-localisation
same,co-localisation of mRFP and GFP over time,[2],increased over time
CO/N=C(\C(=O)N[C@@H]1C(=O)N2C(C(=O)OCOC(=O)C(C)(C)C)=C(/C=C\c3scnc3C)CS[C@H]12)c1csc(N)n1 [CEFDITORIN PIVOXIL],pattern-specific score (PSS),M. bovis BCG-GFP [1],0.8626
CCN(CC)CCCC(C)Nc1ccnc2cc(Cl)ccc12 (centres unmarked) [Chloroquine],mRFP to GFP co-localisation,[2],higher co-localisation
same,co-localisation of mRFP and GFP over time,[2],increased over time
NC(C(=O)O)C(O)C(=O)O [D;L-THREO-3-HYDROXYASPARTIC ACID],pattern-specific score (PSS),M. bovis BCG-GFP [1],0.8004
OC[C@@H](O)[C@@H](OC1O[C@H](CO)[C@@H](O)[C@H](O)[C@H]1O)[C@H](O)[C@@H](O)CO (some centres unmarked) [GLUCITOL-4-GUCOPYANOSIDE],pattern-specific score (PSS),M. bovis BCG-GFP [1],0.8836
O=S(=O)(NCCNC/C=C/c1ccc(Br)cc1)c1cccc2cnccc12 [H89],pattern-specific score (PSS),M. bovis BCG-GFP [1],0.9636
O=c1cc(-c2cc(O)c(O)c(O)c2)oc2cc(O)cc(O)c12 [HIERACIN],pattern-specific score (PSS),M. bovis BCG-GFP [1],0.3164
"O=C(CCCN1CCC(O)(c2ccc(Cl)cc2)CC1)c1ccc(F)cc1 [Haloperidol, 4-[4-(4-chlorophenyl)-4-hydroxy-1-piperidyl]-1-(4-fluorophenyl)-butan-1-one]",bacteriostatic activity on M. bovis BCG-GFP at neutral and acidic pH,M. bovis BCG-GFP [3]; 10 µM,did not show bacteriostatic activity
same,effect on autophagy,HeLa cells,did not
same,intensity of LDL in early and late endosomes,"HeLa BAC GFP-Rab5c; 10µM, LDL pulse for different times","significantly increased the intensity of LDL in late, but not early endosomes"
same,"size, number and position of LDL-containing late endosomes","HeLa BAC GFP-Rab5c; 10 µM, late, but not early endosomes","larger, more numerous and closer to the cell centre"
same,phenotype (phenotypic profile) in mycobacteria high content screen,M. bovis BCG-GFP [1],"reduced bacterial intensity, fewer bacteria and infected cells"
same,mean square displacement of endosomes,[4],"long, but not short, time-scale movements of GFP-Rab5 endosomes were significantly accelerated"
same,motility of early endosomes,[4],much higher motility of early endosomes harboring high levels of Rab5
same,effect in the alamar blue screen,M. bovis BCG-GFP [5],lack of effect
CN1CCc2c(c3ccccc3n2Cc2ccccc2)C1.CN1CCc2c(c3ccccc3n2Cc2ccccc2)C1.O=S(=O)(O)c1cccc2c(S(=O)(=O)O)cccc12 [MEBHYDROLIN NAPHTHALENESULFONATE],pattern-specific score (PSS),M. bovis BCG-GFP [1],0.9999
CSc1ccc2c(c1)C(N1CCN(C)CC1)Cc1ccccc1S2.O=C(O)/C=C\C(=O)O (centres unmarked) [METHIOTHEPIN MALEATE],pattern-specific score (PSS),M. bovis BCG-GFP [1],0.9941
CC([C@H](O)c1ccccc1)N(C)C (stereo partly drawn) [N-METHYL (-)EPHEDRINE],pattern-specific score (PSS),M. bovis BCG-GFP [1],0.8936
CN(C)c1nc(N)c(C(=O)N=C(N)N)nc1Cl [N;N-DIMETHYLAMILORIDE],pattern-specific score (PSS),M. bovis BCG-GFP [1],0.5976
"CNCCC=C1c2ccccc2CCc2ccccc21 [Nortriptyline, 3-(10,11-dihydro-5H-dibenzo[a,d]cyclohepten-5-ylidene)-N-methyl-1-propanamine]",bacteriostatic activity on M. bovis BCG-GFP at neutral and acidic pH,M. bovis BCG-GFP [3],did not show bacteriostatic activity
same,effect on autophagy,HeLa cells,strong effect on autophagy
same,LC3-II band,LC3,significant increase in the LC3-II band
same,additive effects of BafilomycinA1 on LC3-II band,LC3,additive effects of BafilomycinA1 were seen
same,additive effect with BafilomycinA1 and Chloroquine in increasing LC3-GFP vesicles,HeLa BAC LC3-GFP,had an additive effect
same,synergy with IFN-γ on mycobacterial survival,M. bovis BCG-GFP [6],synergized strongly with IFN-γ
same,phenotype (phenotypic profile) in mycobacteria high content screen,M. bovis BCG-GFP [1],"reduced bacterial intensity, fewer bacteria and infected cells"
same,effect in the alamar blue screen,M. bovis BCG-GFP [5],lack of effect
same,mRFP to GFP co-localisation,[2],low mRFP to GFP co-localisation
"CN1CCN(CCCN2c3ccccc3Sc3ccc(Cl)cc32)CC1 [Prochlorperazine edisylate, 2-chloro-10-[3-(4-methyl-1-piperazinyl)propyl]-10H-phenothiazine]",bacteriostatic activity on M. bovis BCG-GFP at neutral and acidic pH,M. bovis BCG-GFP [3]; 10 µM,did not show bacteriostatic activity
same,effect on autophagy,HeLa cells,strong effect on autophagy
same,LC3-II band,LC3,significant increase in the LC3-II band
same,additive effects of BafilomycinA1 on LC3-II band,LC3,not
same,additive effect with BafilomycinA1 and Chloroquine in increasing LC3-GFP vesicles,"HeLa BAC LC3-GFP; 10 µM, 4 hours, Chloroquine 25 µM, BafilomycinA1 100nM",not
same,synergy with IFN-γ on mycobacterial survival,M. bovis BCG-GFP [6],much weaker effect
same,phenotype (phenotypic profile) in mycobacteria high content screen,M. bovis BCG-GFP [1],"reduced bacterial intensity, fewer bacteria and infected cells"
same,effect in the alamar blue screen,M. bovis BCG-GFP [5],lack of effect
same,mRFP to GFP co-localisation,[2],higher co-localisation
same,co-localisation of mRFP and GFP over time,[2],increased within the first hr but then progressively decreased
C[C@@H]1CC[C@@]2(OC1)O[C@H]1C[C@H]3[C@@H]4CC[C@@H]5C[C@@H](O)CC[C@]5(C)[C@H]4CC[C@]3(C)[C@H]1[C@@H]2C [SMILAGENIN],pattern-specific score (PSS),M. bovis BCG-GFP [1],0.7198
COc1cc2c3cc1Oc1cc(ccc1O)C[C@@H]1c4c(cc(OC)c(O)c4Oc4ccc(cc4)C[C@@H]3N(C)CC2)CC[N+]1(C)C.Cl.O.O.O.O.O.[Cl-] [TUBOCURARINE CHLORIDE],pattern-specific score (PSS),M. bovis BCG-GFP [1],0.7944
TOTAROL ACETATE,pattern-specific score (PSS),M. bovis BCG-GFP [1],0.7904
TRIMEPRAZINE TARTRATE,pattern-specific score (PSS),M. bovis BCG-GFP [1],1
